Where a name gives a salt, the structure may show the parent alone.
Each molecule was assayed against T1, recombinant guanylate cyclase reporter cell line (Rattus norvegicus, UniProt P19686+P20595) (assay: Action on recombinant guanylate cyclase reporter cell line). Details: in some cases mean values obtained from individual determinations.
T1 construct: expressed in transfected cells
T1 sequence (P20595 1-619): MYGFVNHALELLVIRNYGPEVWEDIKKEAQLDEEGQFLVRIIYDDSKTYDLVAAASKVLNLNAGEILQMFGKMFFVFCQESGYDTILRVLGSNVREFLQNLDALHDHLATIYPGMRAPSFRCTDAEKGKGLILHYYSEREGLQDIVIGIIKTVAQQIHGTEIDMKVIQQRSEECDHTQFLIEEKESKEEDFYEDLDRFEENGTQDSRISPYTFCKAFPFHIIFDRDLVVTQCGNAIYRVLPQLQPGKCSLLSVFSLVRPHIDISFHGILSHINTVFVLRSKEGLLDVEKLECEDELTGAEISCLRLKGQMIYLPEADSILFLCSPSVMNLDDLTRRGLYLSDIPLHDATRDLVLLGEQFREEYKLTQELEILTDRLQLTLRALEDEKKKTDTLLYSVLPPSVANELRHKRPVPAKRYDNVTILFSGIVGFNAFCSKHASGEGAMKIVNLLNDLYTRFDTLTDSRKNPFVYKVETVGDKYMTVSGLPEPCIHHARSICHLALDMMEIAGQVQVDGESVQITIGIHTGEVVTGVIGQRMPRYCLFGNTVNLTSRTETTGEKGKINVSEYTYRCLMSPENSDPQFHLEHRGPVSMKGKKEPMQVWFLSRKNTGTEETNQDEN
T1 sequence (P19686 1-690): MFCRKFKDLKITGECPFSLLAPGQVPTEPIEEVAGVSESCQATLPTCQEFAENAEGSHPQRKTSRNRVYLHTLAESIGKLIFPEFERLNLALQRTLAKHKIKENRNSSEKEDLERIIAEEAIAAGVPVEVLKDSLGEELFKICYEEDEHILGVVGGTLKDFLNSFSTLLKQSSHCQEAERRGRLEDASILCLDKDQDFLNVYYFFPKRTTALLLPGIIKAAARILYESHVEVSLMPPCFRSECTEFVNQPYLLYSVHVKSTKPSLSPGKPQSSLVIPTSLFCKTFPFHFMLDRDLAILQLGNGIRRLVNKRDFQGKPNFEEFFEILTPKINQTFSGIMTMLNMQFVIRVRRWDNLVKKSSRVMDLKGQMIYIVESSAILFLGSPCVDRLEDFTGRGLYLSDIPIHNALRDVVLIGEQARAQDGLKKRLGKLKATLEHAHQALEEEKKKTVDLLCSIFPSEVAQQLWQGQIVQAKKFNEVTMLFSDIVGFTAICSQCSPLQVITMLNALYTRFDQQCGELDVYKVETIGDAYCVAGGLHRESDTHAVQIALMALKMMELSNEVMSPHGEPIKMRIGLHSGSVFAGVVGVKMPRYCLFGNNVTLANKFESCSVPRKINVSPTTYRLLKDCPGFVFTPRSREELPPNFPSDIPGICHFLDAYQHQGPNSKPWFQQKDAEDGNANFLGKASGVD
Assay type: cell-based
Experimental: B-2. Action on Recombinant Guanylate Cyclase Reporter Cell Line
The cellular action of the compounds according to the invention is determined on a recombinant guanylate cyclase reporter cell line, as described in F. Wunder et al., Anal. Biochem. 339, 104-112 (2005).
Representative values (MEC=minimal effective concentration) for the compounds according to the invention are shown in the following table (in some cases as mean values obtained from individual determinations): […]

Row | MEC (minimal effective concentration) [µM] | SMILES
1 | 1 | Cc1nc2c(OCc3ncccc3F)cccn2c1C(=O)NC(CCCC(F)(F)F)C(C)(C)O (racemic) [Example 179, rac-8-[(3-fluoropyridin-2-yl)methoxy]-2-methyl-N-(7,7,7-trifluoro-2-hydroxy-2-methylheptan-3-yl)imidazo(1,2-a]pyridine-3-carboxamide]
2 | 1 | Cc1nc2c(OCc3ncccc3F)cccn2c1C(=O)NC(CC(F)(F)F)C(C)(C)O (racemic) [Example 180, rac-8-[(3-Fluoropyridin-2-yl)methoxy]-2-methyl-N-(1,1,1-trifluoro-4-hydroxy-4-methylpentan-3-yl)imidazo[1,2-a]pyridine-3-carboxamide]
3 | 1 | Cc1cc(OCc2ncccc2F)c2nc(C)c(C(=O)NC(CC(F)(F)F)C(C)(C)O)n2c1 (racemic) [Example 184, rac-8-[(3-fluoropyridin-2-yl)methoxy]-2,6-dimethyl-N-(1,1,1-trifluoro-4-hydroxy-4-methylpentan-3-yl)imidazo[1,2-a]pyridine-3-carboxamide (racemate)]
4 | 1 | Cc1cc(OCc2ncccc2F)c2nc(C)c(C(=O)NC(CCC(F)(F)C(F)(F)F)C(C)(C)O)n2c1 (racemic) [Example 186, rac-8-[(3-fluoropyridin-2-yl)methoxy]-2,6-dimethyl-N-(6,6,7,7,7-pentafluoro-2-hydroxy-2-methylheptan-3-yl)imidazo[1,2-a]pyridine-3-carboxamide (racemate)]
5 | 1 | Cc1cc(OCc2ncccc2F)c2nc(C)c(C(=O)NC(CCCC(F)(F)C(F)(F)F)C(C)(C)O)n2c1 (racemic) [Example 190, rac-8-[(3-fluoropyridin-2-yl)methoxy]-2,6-dimethyl-N-(7,7,8,8,8-pentafluor-2-hydroxy-2-methyloctan-3-yl)imidazo[1,2-a]pyridine-3-carboxamide (racemate)]
6 | 3 | Cc1cc(OCc2ncccc2F)c2nc(C)c(C(=O)NCC(O)C(F)(F)F)n2c1 (racemic) [Example 197, rac-8-[(3-fluoropyridin-2-yl)methoxy]-2,6-dimethyl-N-(3,3,3-trifluoro-2-hydroxypropyl)imidazo[1,2-a]pyridine-3-carboxamide]
7 | 0.03 | Cc1cc(OCc2c(F)ccc(F)c2F)c2nc(C)c(C(=O)NC(CCC(F)(F)C(F)(F)F)C(C)(C)O)n2c1 (single isomer, unassigned; ent-2) [Example 198, ent-2,6-dimethyl-N-(6,6,7,7,7-pentafluoro-2-hydroxy-2-methylheptan-3-yl)-8-[(2,3,6-trifluorobenzyl)oxy]imidazo[1,2-a]pyridine-3-carboxamide]

The next lines start with the molecule.

Row | SMILES | MEC (minimal effective concentration) [µM]
8 | Cc1nc2c(OCc3c(F)cccc3F)cccn2c1C(=O)NC(CO)COCC(C)C (racemic) [Example 163, rac-8-[(2,6-Difluorobenzyl)oxy]-N-(1-hydroxy-3-isobutoxypropan-2-yl)-2-methylimidazo[1,2-a]-pyridine-3-carboxamide] | 1.0
9 | Cc1cc(OCCC(C(F)(F)F)C(F)(F)F)c2nc(C)c(C(=O)NC(CCCC(F)(F)F)C(C)(C)O)n2c1 (racemic) [Example 170, rac-2,6-Dimethyl-N-(7,7,7-trifluoro-2-hydroxy-2-methylheptan-3-yl)-8-[4,4,4-trifluoro-3-(trifluoromethyl)butoxy]imidazo[1,2-a]pyridine-3-carboxamide] | 3.0
10 | CCC(O)CNC(=O)c1c(C)nc2c(OCCC(C(F)(F)F)C(F)(F)F)cc(C)cn12 (racemic) [Example 174, rac-N-(2-hydroxybutyl)-2,6-dimethyl-8-[4,4,4-trifluoro-3-(trifluoromethyl)butoxy]imidazo[1,2-a]pyridine-3-carboxamide] | 3.0
11 | Cc1cc(OCCC(C(F)(F)F)C(F)(F)F)c2nc(C)c(C(=O)NCC(O)c3ccc(Cl)cc3)n2c1 (racemic) [Example 175, rac-N-[2-(4-chlorophenyl)-2-hydroxyethyl]-2,6-dimethyl-8-[4,4,4-trifluoro-3-(trifluoromethyl)butoxy]imidazo[1,2-a]pyridine-3-carboxamide] | 3.0
12 | Cc1cc(OCC2CC(F)(F)C2)c2nc(C)c(C(=O)NC(CCCC(F)(F)F)C(C)(C)O)n2c1 (racemic) [Example 176, rac-8-[(3,3-Difluorocyclobutyl)methoxy]-2,6-dimethyl-N-(7,7,7-trifluoro-2-hydroxy-2-methylheptan-3-yl)imidazo[1,2-a]pyridine-3-carboxamide] | 3.0
13 | Cc1cc(OCc2ncccc2F)c2nc(C)c(C(=O)NC(CCCC(F)(F)F)C(C)(C)O)n2c1 (racemic) [Example 178, rac-8-[(3-fluoropyridin-2-yl)methoxy]-2,6-dimethyl-N-(7,7,7-trifluoro-2-hydroxy-2-methylheptan-3-yl)imidazo[1,2-a]pyridine-3-carboxamide trifluoroacetate] | 1
14 | Cc1nc2c(OCC3CCCCC3)cccn2c1C(=O)N[C@@H]1CCC[C@@H]1O (relative stereo) [Example 81, 8-(cyclohexylmethoxy)-N-[cis-2-hydroxycyclopentyl]-2-methylimidazo[1,2-a]-pyridine-3-carboxamide] | 0.65
15 | Cc1nc2c(OCc3c(F)cccc3F)cccn2c1C(=O)NC(CO)CCC(O)C(F)(F)F (single isomer, unassigned) [Example 138, 8-[(2,6-Difluorobenzyl)oxy]-2-methyl-N-(6,6,6-trifluoro-1,5-dihydroxyhexan-2-yl)imidazo[1,2-a]-pyridine-3-carboxamide] | 0.1
16 | CCCCC(NC(=O)c1c(C)nc2c(OCCC(C)C)cc(C)cn12)C(C)(C)O (single isomer, unassigned) [Example 167, ent-N-(2-Hydroxy-2-methylheptan-3-yl)-2,6-dimethyl-8-(3-methylbutoxy)imidazo[1,2-a]pyridine-3-carboxamide] | 2.0
17 | Cc1cc(OCCC(C)C)c2nc(C)c(C(=O)NC(CCCC(F)(F)F)C(C)(C)O)n2c1 (single isomer, unassigned; ent-2) [Example 168, ent-2,6-Dimethyl-8-(3-methylbutoxy)-N-(7,7,7-trifluoro-2-hydroxy-2-methylheptan-3-yl)imidazo-[1,2-a]pyridine-3-carboxamide] | 3.0
18 | Cc1nc2c(OCc3c(F)cccc3F)cccn2c1C(=O)NC(CO)c1ccc(F)cc1 (single isomer, unassigned; ent-8) [Example 107, ent-8-[(2,6-Difluorobenzyl)oxy]-N-[1-(4-fluorophenyl)-2-hydroxyethyl]-2-methylimidazo[1,2-a]-pyridine-3-carboxamide] | 0.1
19 | Cc1nc2c(OCc3c(F)cccc3F)cccn2c1C(=O)NCC(O)C(F)(F)F (single isomer, unassigned; ent-8) [Example 109, ent-8-[(2,6-Difluorobenzyl)oxy]-2-methyl-N-(3,3,3-trifluoro-2-hydroxypropyl)imidazo[1,2-a]-pyridine-3-carboxamide] | 0.1
20 | Cc1nc2c(OCc3c(F)cccc3F)cccn2c1C(=O)NC(CO)CC(F)(F)F (single isomer, unassigned; ent-8) [Example 121, ent-8-[(2,6-Difluorobenzyl)oxy]-2-methyl-N-(4,4,4-trifluoro-1-hydroxybutan-2-yl)imidazo[1,2-a]-pyridine-3-carboxamide] | 0.03
21 | Cc1nc2c(OCc3c(F)cccc3F)cccn2c1C(=O)NC(CO)CCC(F)(F)F (single isomer, unassigned; ent-8) [Example 122, ent-8-[(2,6-Difluorobenzyl)oxy]-2-methyl-N-(5,5,5-trifluoro-1-hydroxypentan-2-yl)imidazo[1,2-a]-pyridine-3-carboxamide] | 0.03

Reference: patent US8946215B2, “Hydroxy-substituted imidazo[1,2-a]pyridinecarboxamides and their use” (Bayer Pharma Aktiengesellschaft, priority 2012, dated 2015)
